Measured values published in patent US5532228A, “Side-chain homologous vitamin D derivatives, process for their production, pharmaceutical preparations containing these derivatives and their use as pharmaceutical agents” (Schering Aktiengesellschaft, priority 1990, dated 1996).
Like-named read-outs stand apart in the source and are kept apart here.

How the values were obtained:
[1] = tested on: Keratinocytes of newborn mice; assay: antiproliferative test: 3H-thymidine incorporation in DNA of keratinocytes; assay type: cell-based, mouse (neonatal NMRI mice); details: mouse keratinocytes, 24 hours with test substance in serum-free medium at 32.5° C., 4 hours 3H-methylthymidine, read-out: IC50 of inhibition of 3H-thymidine incorporation in DNA
Experimental: Keratinocytes of newborn mice are prepared and cultivated in a modification of the method of Yuspa, S. and Harris, C.
Neonatal NMRI mice of both sexes are killed by decapitation, the skin is removed, washed in an antibiotic-antimycotic solution and, with the dermal side facing down, incubated overnight at 4° C. in dispase II solution (1.2 U/ml in tissue culture medium M199 +25 mmol/l HEPES+15% fetal calf serum (FCS)+50 U/ml of penicillin/streptomycin (P/S) (preparation medium, PM). The epidermis is removed and a single-cell suspension is produced by trypsinization. After centrifuging, the cell sediment is resuspended, the number of living, small, round cells is determined after trypan blue staining and the cells are sown in a density of 4×10^5 cells/cm^2 in Primaria 24-hole plates in tissue culture medium (M199+15% FCS+50 U/ml of P/S). […] Then, 0.4 microcuries/50 microliters of ^3 H-methylthymidine (40 Ci/mmol) is added. After 4 hours, the medium is suctioned off and the reaction is ended by adding 500 microliters of ice-cold 10% trichloroacetic acid (TCA). The cells are washed with TCA and PBS, lysed by incubation in a proteinase K-solution (10 mmol/l of tris-HCl, 10 mmol/l of EDTA, 10 mmol/l of NaCl, 0.2% triton-X 100, pH 8.0, 50 micrograms/ml of […]) and the lysate is clarified by centrifuging. In the supernatant fluid, the radioactivity is determined by scintillation photometry and, after specific staining of the DNA with diamidinophenylindole (DAPI), the DNA concentration is determined by fluorescence photometry.

[2] = tested on: HL 60 cells (human leukemia cells, promyelocytic cell line); assay: HL 60 differentiation induction into macrophages (NBT reduction to formazan); assay type: cell-based; details: for EC50: Homo sapiens, HL-60, 96 hours incubation, NBT-TPA, formazan at 650 nm, read-out: ED50 of differentiation induction of HL 60 cells into macrophages (formazan formed); for differentiation-stimulating effect compared with calcitriol: HL 60 cells, versus calcitriol
Experimental: To quantify the differentiation-stimulating effect of calcitriol analogs, the test indicated below was performed:
HL 60 cells are cultivated in tissue culture medium (RPM1--10% fetal calf serum) at 37° C. in an atmosphere of 5% CO2 in air.
The test substances are-dissolved in ethanol and diluted with tissue culture medium without phenol red to the desired concentration. The dilution stages are mixed with the cell suspension in a ratio of 1:10 and 100 microliters each of this cell suspension mixed with substance is pipetted into an indentation of a 96-hole plate. As a control, a cell suspension is mixed analogously with the solvent.
After incubation for 96 hours at 37° C. in 5% CO2 in air, 100 microliters of an NBT-TPA solution (nitro blue tetrazolium (NBT), final concentration in the batch 1 mg/ml, tetradecanoyl-phorbol myristate-13-acetate (TPA), final concentration in the batch 2×10^-7 mol/l) is pipetted into each indentation of the 96-hole plate into the cell suspension.
By incubation for 2 hours at 37° C. and 5% CO2 in air, the NBT is reduced to insoluble formazan because of the intracellular oxygen radical release, stimulated by TPA, in the cells differentiated into macrophages.
To end the reaction, the indentations of the 96-hole plate are drained and the adhering cells are fixed by adding methanol and dried after fixation.
To dissolve the intracellular formazan crystals formed, 100 microliters of potassium hydroxide (2 val/l) and 100 microliters of dimethyl sulfoxide are pipetted into each indentation and are exposed to ultrasonic waves for 1 minute. The concentration of formazan is measured by spectrophotometry at 650 nm.
The concentration of formazan formed is regarded as a measurement for the differentiation induction of the HL 60 cells into macrophages. The relative effectiveness of the test substance results from the quotient of ED50 test substance/ED50 calcitriol.

Row | EC50 [2] | SMILES | IC50 [1] | IC50 ([1]; Keratinocyte) | differentiation-stimulating effect compared with calcitriol [2]
1 | – | C=C1/C(=C\C=C2/CCC[C@]3(C)[C@@H]([C@H](C)C/C=C/C(O)CC(C)C)CC[C@@H]23)C[C@@H](O)C[C@@H]1O (single isomer, unassigned) [compound A] | 10 nM | – | –
2 | – | C=C1/C(=C\C=C2/CCC[C@]3(C)[C@@H]([C@H](C)C/C=C/C(O)CC(C)C)CC[C@@H]23)C[C@@H](O)C[C@@H]1O (single isomer, unassigned) [compound B] | 3.2 nM | – | –
3 | 2.2 nM | C=C1/C(=C\C=C2/CCC[C@]3(C)[C@@H]([C@H](C)C/C=C/[C@H](O)CC4CC4)CC[C@@H]23)C[C@@H](O)C[C@@H]1O [compound C, 26,27-cyclo-24a,24b-dihomo-9,10-secocholesta-5Z,7E,10(19),23E-tetraene-1(S),3(R),24a(R)-triol] | – | – | practically do not differ
4 | 2.5 nM | C=C1/C(=C\C=C2/CCC[C@]3(C)[C@@H]([C@H](C)C/C=C/[C@@H](O)CC4CC4)CC[C@@H]23)C[C@@H](O)C[C@@H]1O [compound D, 26,27-cyclo-24a,24b-dihomo-9,10-secocholesta-5Z,7E,10(19),23E-tetraene-1(S),3(R),24a(S)-triol] | – | – | practically do not differ

Row | SMILES | EC50 [2] | IC50 [1] | IC50 ([1]; Keratinocyte) | differentiation-stimulating effect compared with calcitriol [2]
5 | C=C1/C(=C\C=C2/CCC[C@]3(C)[C@@H]([C@H](C)CCCC(C)(C)O)CC[C@@H]23)C[C@@H](O)C[C@@H]1O [calcitriol, lalpha,25-dihydroxycholecalciferol, reference compound] | 1.8 nM | – | 2 nM | –
